Bounds are passed on as bounds.

The assay has as its system HSV-2 G strain. The assay is described as follows: HSV-2 Antiviral Assay (Vero cells, cell viability). The format is cell-based. The note with it: Human alphaherpesvirus 2, Vero, 120 h, Vero cells, 160 TCID50 HSV-2 G strain, 5 days, cell viability. The procedure: Vero cells were cultured in Dulbecco's Modified Eagle Medium (DMVEM) supplemented with […] and 100 units/mL penicillin and streptomycin. The cells were passaged 2-3 times per week to maintain sub-confluent densities.
Vero cells were seeded into 96-well plates at a density of 1.0×10^4 cells per well and allowed to attach overnight. Following attachment, the media was replaced with 50 μL of infection medium (DMEM supplemented with 2% fetal bovine serum and 100 units/mL penicillin and streptomycin). A Tecan D300e digital dispenser was then used to add compounds to the culture using an 8-point 3-fold serial dilution format. The DMSO concentration was normalized to 0.5% for all treatments. Following compound addition, 50 μL of infection medium containing 160 TCID50 HSV-2 G strain was added to the cells and incubated at 37° C. for 5 days. After the incubation, 10 μL/well of WST-8 chromogenic reagent was added and the plates incubated at 37° C. for 3 hours. Following the incubation, cell viability was quantified by measuring the absorbance at 460 nm and 620 nm using a Tecan Infinite M1000 Pro plate reader.
What is called EC50 is the concentration at which the effect is half-maximal. In turn, `Cc1nc(N2CCCN(c3ccc(-c4cc(F)ccc4F)cc3)C2=O)sc1S(=O)(=O)N1CC[C@@H](N)C1` [Compound 399] showed an EC50 of 100 to 1000 nM.

In turn, `Cc1nc(N2CCCN(c3ccc(-c4cc(F)ccc4F)cc3)C2=O)sc1S(=O)(=O)N1CC2(COC2)C1` [Compound 403] came in with an EC50 of less than 100 nM.

Turning to `Cc1nc(N2CCCN(c3ccc(-c4cccc5c4cnn5S(C)(=O)=O)cc3)C2=O)sc1S(N)(=O)=O` [Compound 57], the EC50 is 1000 to 5000 nM.

On to `Cc1nc(N2CC3(CCCC3)CN(c3ccc(-c4cc(F)ccc4F)cc3)C2=O)sc1S(N)(=O)=O` [Compound 336], for which the EC50 is less than 100 nM.

`Cc1nc(N2CCCN(c3ccc(-c4cc(F)ccn4)cc3)C2=O)sc1S(=O)(=O)NC1CC1` [Compound 408] displayed an EC50 of less than 100 nM.

With `Cc1nc(N2CC3(COC3)CN(c3ccc(-c4cc(F)ccc4F)cc3)C2=O)sc1S(C)(=N)=O` (stereo not shown) [Compound 431], the 50% effective concentration (EC50) is less than 100 nM.

Compound `Cc1nc(N2CCCN(c3ccc(-c4cc(Cl)cc(Cl)c4F)cc3)C2=O)sc1S(N)(=O)=O` [Compound 213] displayed an EC50 of less than 100 nM.

For `COc1ccc(F)cc1-c1ccc(N2CCCN(c3nc(C)c(S(N)(=O)=O)s3)C2=O)cc1` [Compound 203], the half-maximal effective concentration (EC50) is less than 100 nM.

The compound `Cc1nc(N2CC(F)CN(c3ccc(-c4cc(F)ccc4F)cc3)C2=O)sc1S(=O)(=O)NCCO` (stereo not shown) [Compound 413] registered an EC50 of less than 100 nM.

With `Cc1nc(N2CCCN(c3ccc(-c4cc(F)ccc4-c4cnn(C)c4)cc3)C2=O)sc1S(N)(=O)=O` [Compound 207], the EC50 was 100 to 1000 nM.

Consider `Cc1nc(N2CCCN(c3ccc(-c4cc(F)ccc4F)cc3)C2=O)sc1S(=O)(=O)Nc1ccccn1` [Compound 406], for which the EC50 is less than 100 nM.

The compound `Cc1nc(N2CCCN(c3ccc(-c4cc(F)cc5c4c(C#N)cn5C)cc3)C2=O)sc1S(N)(=O)=O` [Compound 294] returned an EC50 of 100 to 1000 nM.

`CONS(=O)(=O)c1sc(N2CCCN(c3ccc(-c4cc(F)ccc4F)cc3)C2=O)nc1C` [Compound 386] had an EC50 of less than 100 nM.

For `Cc1nc(N2CCCN(c3ccc(-c4nccc5ccsc45)cc3)C2=O)sc1S(N)(=O)=O` [Compound 270], the EC50 was less than 100 nM.

`Cc1nc(N2CCCN(c3ccc(-c4cc(F)ccc4-c4cncs4)cc3)C2=O)sc1S(N)(=O)=O` [Compound 231]: the EC50 was in the range of 100 to 1000 nM.

Compound `Cc1nc(N2CCCCN(c3ccc(-c4cc(F)ccc4F)cc3)C2=O)sc1S(C)(=N)=O` (stereo not shown) [Compound 154] displayed an EC50 of less than 100 nM.

In turn, `Cc1nc(N2CCCN(c3ccc(-c4cc(F)ccc4F)cc3)C2=O)sc1S(=O)(=O)NN` [Compound 405] yielded an EC50 of 100 to 1000 nM.

As to `Cc1nc(N2CCCCN(c3ccc(-c4cccc5ncsc45)cc3)C2=O)sc1[S@@](C)(=N)=O` (single isomer, unassigned) [Compound 429], the EC50 was less than 100 nM.

Turning to `Cc1nc(N2CCCN(c3ccc(-c4ccnc5ncsc45)cc3)C2=O)sc1S(N)(=O)=O` [Compound 272], the half-maximal effective concentration (EC50) lay in the range of 1000 to 5000 nM.

With `Cc1nc2cc(F)cc(-c3ccc(N4CCCN(c5nc(C)c(S(N)(=O)=O)s5)C4=O)cc3)c2s1` [Compound 256], the EC50 was less than 100 nM.

The compound `Cc1nc(N2CCCN(c3ccc(-c4cccc(-c5nccs5)c4)cc3)C2=O)sc1S(N)(=O)=O` [Compound 30, 4-methyl-2-(2-oxo-3-(3′-(thiazol-2-yl)-[1,1′-biphenyl]-4-yl)tetrahydropyrimidin-1(2H)-yl)thiazole-5-sulfonamide] had an EC50 of less than 100 nM.

`Cc1nc(N2C[C@H](C(F)F)CN(c3ccc(-c4cc(F)ccc4F)cc3)C2=O)sc1S(N)(=O)=O` (single isomer, unassigned) [Compound 350] showed an EC50 of less than 100 nM.

Consider `Cc1nc(N2CCCN(c3ccc(-c4cc(F)cc5nc(C6CC6)sc45)cc3)C2=O)sc1S(N)(=O)=O` [Compound 253], for which the EC50 was less than 100 nM.

Compound `Cc1nc(N2CCCN(c3ccc(-c4cccc(S(C)(=O)=O)c4)cc3)C2=O)sc1S(N)(=O)=O` [Compound 201] yielded an EC50 of 1000 to 5000 nM.

Take `Cc1nc(N2CC(C(C)(C)O)CN(c3ccc(-c4snc5ccccc45)cc3)C2=O)sc1S(N)(=O)=O` (stereo not shown) [Compound 348]: the half-maximal effective concentration (EC50) is 100 to 1000 nM.

For `CO[C@H]1CN(c2ccc(-c3cc(F)ccc3F)cc2)C(=O)N(c2nc(C)c(S(N)(=O)=O)s2)C1` (single isomer, unassigned) [Compound 359], the half-maximal effective concentration (EC50) is 1000 to 5000 nM.

In turn, `Cc1nc(N2CCCN(c3ccc(-c4cc(C(F)(F)F)cc5c4ccn5C)cc3)C2=O)sc1S(N)(=O)=O` [Compound 246] gave a concentration for a half-maximal effect (EC50) of less than 100 nM.

For `COc1ncc(F)cc1-c1ccc(N2CCCN(c3nc(C)c(S(N)(=O)=O)s3)C2=O)cc1` [Compound 239], the EC50 was less than 100 nM.

For the compound `Cc1nc(N2CCCN(c3ccc(-c4cc(F)ccc4F)cc3)C2=O)sc1S(=O)(=O)NC(C)(C)CO` [Compound 402], the EC50 is 100 to 1000 nM.

`Cc1nc(N2CC3(CC3)CN(c3ccc(-c4nnco4)cc3)C2=O)sc1S(N)(=O)=O` [Compound 335]: the EC50 was 1000 to 5000 nM.

Take `Cc1nc(N2CCCN(c3ccc(-c4cc(F)ccc4C#CC(C)(C)O)cc3)C2=O)sc1S(N)(=O)=O` [Compound 19, 2-(3-(5′-Fluoro-2′-(3-hydroxy-3-methylbut-1-yn-1-yl)-[1,1′-biphenyl]-4-yl)-2-oxotetrahydropyrimidin-1(2H)-yl)-4-methylthiazole-5-sulfonamide]: the EC50 fell in the range of 1000 to 5000 nM.

Compound `Cc1nc(N2CCCN(c3ccc(-c4cc(F)ccc4F)cc3)C2=O)sc1S(=O)(=O)NCCCCO` [Compound 389] had an EC50 of less than 100 nM.

Turning to `Cc1nc(N2CCCN(c3ccc(-c4cccn5nncc45)cc3)C2=O)sc1S(N)(=O)=O` [Compound 263], the half-maximal effective concentration (EC50) lay within 100 to 1000 nM.

In turn, `Cc1nc(N2CCCN(c3ccc(-c4nccn5cncc45)cc3)C2=O)sc1S(N)(=O)=O` [Compound 262] registered an EC50 of 1000 to 5000 nM.

In the case of `Cc1nc(N2CCCN(c3ccc(-c4cc(F)cc5nc(C#N)sc45)cc3)C2=O)sc1S(N)(=O)=O` [Compound 279], the EC50 lay within 100 to 1000 nM.

For the compound `Cc1nc(N2CCCN(c3ccc(-c4cccc5c4OCO5)cc3)C2=O)sc1S(N)(=O)=O` [Compound 81], the EC50 lay within 100 to 1000 nM.

In turn, `Cc1nc(N2C[C@@H](C(N)=O)CN(c3ccc(-c4cc(F)ccc4F)cc3)C2=O)sc1S(N)(=O)=O` (single isomer, unassigned) [Compound 383] showed an EC50 of 100 to 1000 nM.

Take `Cc1nc(N2CCCCN(c3ccc(-c4cc(F)cc5nsnc45)cc3)C2=O)sc1S(N)(=O)=O` [Compound 313]: the EC50 is less than 100 nM.

In turn, `Cc1nc(N2C[C@@H](C#N)CN(c3ccc(-c4cc(F)ccc4F)cc3)C2=O)sc1S(N)(=O)=O` (single isomer, unassigned) [Compound 362] came in with an EC50 of less than 100 nM.

`COc1ccc(F)cc1-c1ccc(N2C[C@@H](C)CN(c3nc(C)c(S(N)(=O)=O)s3)C2=O)cc1` (single isomer, unassigned) [Compound 330] had an EC50 of less than 100 nM.

Take `Cc1nc(N2CCCN(c3ccc(-c4cccc(-c5cncs5)c4)cc3)C2=O)sc1S(N)(=O)=O` [Compound 31]: the EC50 was less than 100 nM.

In the case of `Cc1nc(N2C[C@@H](F)CN(c3ccc(-c4cc(F)ccc4F)cc3)C2=O)sc1S(=O)(=O)NCCO` (single isomer, unassigned) [Compound 415], the EC50 is less than 100 nM.

For the compound `Cc1nc(N2CCCN(c3ccc(-c4cc(F)ccc4F)cc3)C2=O)sc1S(=O)(=O)N1CC[C@H](N)C1` [Compound 398], the EC50 was in the range of 100 to 1000 nM.

The compound `COc1cc(Cl)c(F)c(-c2ccc(N3CCCN(c4nc(C)c(S(N)(=O)=O)s4)C3=O)cc2)c1` [Compound 218] came in with an EC50 of less than 100 nM.

`Cc1nc(N2CCCN(c3ccc(-c4cc(C5(C#N)CC5)ccc4F)cc3)C2=O)sc1S(N)(=O)=O` [Compound 208] displayed an EC50 of less than 100 nM.

`Cc1nc(N2CC3(COC3)CN(c3ccc(-c4cc(F)ccc4F)cc3)C2=O)sc1[S@@](C)(=N)=O` (single isomer, unassigned) [Compound 432]: the EC50 was less than 100 nM.

For the compound `COCCNS(=O)(=O)c1sc(N2CCCN(c3ccc(-c4cc(F)ccc4F)cc3)C2=O)nc1C` [Compound 387], the EC50 is less than 100 nM.

On to `Cc1nc(N2CCCN(c3ccc(-c4nc(C#N)cs4)cc3)C2=O)sc1S(N)(=O)=O` [Compound 48], for which the concentration giving a half-maximal response (EC50) was less than 100 nM.

`CN=[S@](C)(=O)c1sc(N2CCCN(c3ccc(-c4cc(F)ccc4F)cc3)C2=O)nc1C` (single isomer, unassigned) [Compound 153] gave an EC50 of 100 to 1000 nM.

`COc1c(F)cc(F)cc1-c1ccc(N2C[C@@H](C(C)(C)O)CN(c3nc(C)c(S(N)(=O)=O)s3)C2=O)cc1` (single isomer, unassigned) [Compound 346] yielded an EC50 of 100 to 1000 nM.

For `Cc1nc(N2CCCN(c3ccc(-c4cc(C#N)cc5nsnc45)cc3)C2=O)sc1S(N)(=O)=O` [Compound 304], the EC50 is less than 100 nM.

Compound `Cc1nc(N2CCCN(c3ccc(-c4cc(Cl)ccc4F)cc3)C2=O)sc1S(N)(=O)=O` [Compound 27] yielded an EC50 of less than 100 nM.

As for `CN=S(C)(=O)c1sc(N2CCCN(c3ccc(-c4cc(F)ccc4F)cc3)C2=O)nc1C` (stereo not shown) [Compound 151], the EC50 lay within 100 to 1000 nM.

For `COc1ccc(F)cc1-c1ccc(N2C[C@H](C)CN(c3nc(C)c(S(N)(=O)=O)s3)C2=O)cc1` (single isomer, unassigned) [Compound 331], the EC50 is less than 100 nM.

Turning to `Cc1cccc(-c2ccc(N3CCCN(c4nc(C)c(S(N)(=O)=O)s4)C3=O)cc2)c1C` [Compound 195], the EC50 was less than 100 nM.

For the origin of these results see US20260103471A1, “CYCLIC UREA THIAZOLYL COMPOUNDS FOR TREATMENT OF HSV” (Assembly Biosciences, Inc., priority 2022, published 2026).
